What all share (type): in vivo, NMRI nu/nu female mice
Experiment [1] relates to HT 1080 cells (human fibrosarcoma). Nature of the experiment: Tumour growth in nude mice inoculated with HT 1080 cells. The following applies: HT 1080 tumours, 14 days. The procedure: The experiments were conducted with NMRI nu/nu female mice (M&B, Ry, Denmark) kept under semi-sterile conditions. The mice were 6 weeks old on arrival, and they were allowed to acclimatise for approximately 3 weeks before the experiments were initiated. The bedding was autoclaved at 121° C. for 20 minutes, the food was sterilised by irradiation, and the drinking water was filtered through a 0.2 μm filter. All handling of the mice was done in laminar flow benches. Each experiment employed 40-60 mice which were inoculated in both flanks and left for the tumours to develop. Following that, the mice were divided into groups, each containing 10 mice and thus 18-20 tumors, according to the size of the tumour, i.e. large, medium or small. Unless stated otherwise all doses have been given daily. The tumours were measured using digital callipers before treatment start (=baseline), twice weekly for the duration of the study, and at the end of the study. Tumour area (A) was calculated as the product of the two measured perpendicular diameters; […] For mice with only one tumour, the area of this tumour was calculated and used in the statistical analysis. For mice with two tumours, the average of the two tumour areas was calculated and used in the statistical analysis. For each animal, an individual curve of the tumour areas observed during the study was plotted against time. The trend was an increasing growth rate of the tumours. In order to ensure an approximate linear correspondence between tumour data and time, the observations were transformed by taking the square root of the tumour areas, corresponding to tumour size in one dimension. As a summary measure of the repeated measurements of tumour areas during the study (tumour growth rate), the estimated slope of the individual curves of the square root transformed curves was used [Matthews, Br. Med. […] The slope should be interpreted as a measure of the tumour growth rate and was estimated using linear regression analysis by time on the observations during the study. Within each group, the mean of the tumour growth rate was calculated. The HT 1080 cell line originates from a patient with human fibrosarcoma, and it was obtained from ATCC. The mice were inoculated with 2×10^6 HT 1080 cells in 0.2 ml in each flank, and the tumours were left to grow for approximately 4 days.

In experiment [2] the test system is Colo 320 DM cells (human colon cancer). Kind of experiment: Tumour growth in nude mice inoculated with Colo 320 DM cells. The following applies: Colo 320 DM tumours, 21 days, control 0.55. The protocol: (§1) The experiments were conducted with NMRI nu/nu female mice (M&B, Ry, Denmark) kept under semi-sterile conditions. The mice were 6 weeks old on arrival, and they were allowed to acclimatise for approximately 3 weeks before the experiments were initiated. The bedding was autoclaved at 121° C. for 20 minutes, the food was sterilised by irradiation, and the drinking water was filtered through a 0.2 μm filter. All handling of the mice was done in laminar flow benches.
Each experiment employed 40-60 mice which were inoculated in both flanks and left for the tumours to develop. Following that, the mice were divided into groups, each containing 10 mice and thus 18-20 tumors, according to the size of the tumour, i.e. large, medium or small. […]
(§2) The tumours were measured using digital callipers before treatment start (=baseline), twice weekly for the duration of the study, and at the end of the study. Tumour area (A) was calculated as the product of the two measured perpendicular diameters; A=d1×d2. For mice with only one tumour, the area of this tumour was calculated and used in the statistical analysis. For mice with two tumours, the average of the two tumour areas was calculated and used in the statistical analysis.
For each animal, an individual curve of the tumour areas observed during the study was plotted against time. […] Within each group, the mean of the tumour growth rate was calculated. […]

The test system of experiment [3] is NYH cells (small cell lung cancer). Kind of experiment: Tumour growth in nude mice inoculated with NYH cells. The following applies: NYH tumours, 14 days. The procedure: as §1
Each experiment employed 40-60 mice which were inoculated in both flanks and left for the tumours to develop. Following that, the mice were divided into groups, each containing 10 mice and thus 18-20 tumors, according to the size of the tumour, i.e. large, medium or small. Unless stated otherwise all doses have been given daily.
as §2
For each animal, an individual curve of the tumour areas observed during the study was plotted against time. The trend was an increasing growth rate of the tumours. In order to ensure an approximate linear correspondence between tumour data and time, the observations were transformed by taking the square root of the tumour areas, corresponding to tumour size in one dimension. As a summary measure of the repeated measurements of tumour areas during the study (tumour growth rate), the estimated slope of the individual curves of the square root transformed curves was used [Matthews, Br. Med. J., 300, 230-235, 1990]. The slope should be interpreted as a measure of the tumour growth rate and was estimated using linear regression analysis by time on the observations during the study. Within each group, the mean of the tumour growth rate was calculated.
The NYH cell line originates from a patient with small cell lung cancer. The cell line was obtained from Rigshospitalet, Copenhagen, Denmark.
The mice were inoculated with 1×10^7 NYH cells in 0.2 ml in each flank, and the tumours were left to grow for approximately 4 days. The duration of the dosing was 14 days.

Molecules are shown by their SMILES.

The text below walks through data of patent US20030045515A1, “Combination medicament for treatment of neoplastic diseases” (priority 2001, published 2003).

`CO[C@@H]1[C@H](OC(=O)NC(=O)CCl)CC[C@]2(CO2)[C@H]1[C@@]1(C)O[C@@H]1CC=C(C)C` [TNP-470]: the Mean increment/day is listed as 0.51 mm/day in experiment [1] (TNP-470 9 mg/kg s.c. daily, control 0.73) and 0.29 mm/day in experiment [2] (TNP-470 9 mg/kg s.c. daily).
For `N#CNC(=Nc1ccncc1)NCCCCCCOc1ccc(Cl)cc1` [Compound A, N-cyano-N′-(6-(4-chlorophenoxy)hexyl)-N″(4-pyridyl)guanidine], the Mean increment/day in experiment [1] (compound A 50 mg/kg p.o. daily, TNP-470 experiment, control 0.73) is recorded as 0.14 mm/day; in experiment [1] (compound A 50 mg/kg p.o. daily, etoposide experiment, control 0.45), 0.21 mm/day; in experiment [1] (compound A 50 mg/kg p.o. daily, paclitaxel experiment, control 0.67), 0.30 mm/day; in experiment [1] (compound A 50 mg/kg p.o. daily, seocalcitol experiment, control 0.98), 0.24 mm/day; in experiment [2] (compound A 50 mg/kg p.o. daily), 0.22 mm/day; in experiment [3] (compound A 15 mg/kg p.o. daily, cisplatin experiment, control 0.90), 0.02 mm/day. In addition, the Mean increment/day in experiment [3] (compound A 15 mg/kg p.o. daily, cyclophosphamide experiment, control 0.61) is on record as 0.26 mm/day; in experiment [3] (compound A 15 mg/kg p.o. daily, etoposide experiment, control 0.67), 0.34 mm/day.
Turning to `C=C1/C(=C\C=C2/CCC[C@]3(C)[C@@H]([C@H](C)/C=C/C=C/C(O)(CC)CC)CC[C@@H]23)C[C@@H](O)C[C@@H]1O` [Seocalcitol], in experiment [1] (seocalcitol 2 μg/kg p.o. daily, control 0.98), the Mean increment/day amounted to 0.95 mm/day.
As for `COc1cc([C@@H]2c3cc4c(cc3[C@@H](O[C@@H]3O[C@@H]5CO[C@@H](C)O[C@H]5[C@H](O)[C@H]3O)[C@H]3COC(=O)[C@H]23)OCO4)cc(OC)c1O` [Etoposide], the Mean increment/day in experiment [1] (etoposide 10 mg/kg p.o. daily, control 0.45) is recorded as -0.01 mm/day; in experiment [3] (etoposide 10 mg/kg p.o. daily, control 0.67), 0.41 mm/day.
In turn, `N.N.[Cl][Pt][Cl]` [Cisplatin] showed a Mean increment/day in experiment [3] (cisplatin 5 mg/kg i.p. once weekly, control 0.90) of 0.32 mm/day.
With `CC(=O)O[C@H]1C(=O)[C@@]2(C)[C@H]([C@H](OC(=O)c3ccccc3)[C@]3(O)C[C@H](OC(=O)[C@H](O)[C@@H](NC(=O)c4ccccc4)c4ccccc4)C(C)=C1C3(C)C)[C@]1(OC(C)=O)CO[C@@H]1C[C@@H]2O` [Paclitaxel], the Mean increment/day came to 0.39 mm/day in experiment [1] (paclitaxel 1 mg/kg s.c. daily, control 0.67) and 0.15 mm/day in experiment [1] (paclitaxel 2 mg/kg s.c. daily, control 0.67).
As for `O=P1(N(CCCl)CCCl)NCCCO1` (centres unmarked) [Cyclophosphamide], the Mean increment/day in experiment [3] (cyclophosphamide 7 mg/kg p.o. daily, control 0.61) came out at 0.40 mm/day.
